The results in this text go back to PubChem BioAssay AID720713 (Broad Institute, 2013).

A word on the AC50: it is the midpoint of the concentration-response curve, whichever way the signal moves.

Activity calls are given as the source filed them. The rule behind the calls is not given here.

System in one assay: not listed separately
The experiment in a line: viability loss in A549 lung cancer cells – cell-based, plate reader, dry powder, set 2, dose response (AID 720713). Particulars: A549 cytotoxicity, plate reader; at 12 µM (top of the series).
On to `CN(C(=O)COc1ccccc1C(=O)NCCOc1ccccc1)c1ccccc1`, for which the activity change, negative = cytotoxicity is 2.59% (inactive).

Still in this assay, the particulars now being: A549 cytotoxicity, plate reader; at 26 µM (top of the series).
As to `Cc1cc(N2CCCC2=O)cc(C)c1S(=O)(=O)NCCOc1ccc(C(C)(C)C)cc1`, the activity change, negative = cytotoxicity is 11% (inactive).
The same measure, in the same setting: with `O=c1c2ccccc2nc2n1C(CSCc1ccc(Cl)cc1Cl)CS2` (configuration not stated) the figure was 6.09% (inactive); with `CCOC(=O)C1(Cc2ccc(Cl)cc2)CCN(C(C)Cc2ccc(O)c(OC)c2)CC1` (configuration not stated), 1.75% (inactive).
The same measure, in the same setting: with `O=C(c1nnsc1S(=O)c1ccc(Cl)cc1)N1CCOCC1` (configuration not stated) the figure was -41.1% (inactive).
The same measure, in the same setting: under `COc1ccc(Nc2nc(N3CCCCC3)c3ccccc3n2)cc1` stands 5.38% (inactive); under `Nc1nonc1C(=O)NCCNCc1cc(Br)ccc1OCc1ccc(F)cc1`, 4.85% (inactive).
For the compound `CC(C)[C@H](NC(=O)OC(C)(C)C)c1nnc(S(=O)(=O)Cc2c(F)cccc2Cl)o1`, the activity change, negative = cytotoxicity was 22.5% (inactive).
As to `CN(C)S(=O)(=O)c1cccc(NC(=O)c2cccc(S(=O)(=O)N3CCc4ccccc43)c2)c1`, the activity change, negative = cytotoxicity is -0.758% (inactive).
The same measure, in the same setting: under `Cc1cc2c(cc(C(=O)N3CCC(C(=O)NC4CCCC4)CC3)n2Cc2c(F)cccc2Cl)o1` stands -19.5% (inactive).
Same read-out and setting: under `COc1ccc(NS(=O)(=O)c2ccc(C(=O)N3CCCCCC3)cc2)cc1` stands 22% (inactive).
Still for that read-out and setting: under `CC(=O)N1CCN(C(=O)CCc2cc(C(C)(C)C)c(O)c(C(C)(C)C)c2)CC1` stands -4.62% (inactive).
In the case of `COc1ccc2c(c1)c(CC(=O)Nc1cc(C)ccc1C)c(C)n2C(=O)c1ccc(Cl)cc1`, the activity change, negative = cytotoxicity was -1.36% (inactive).
Still for that read-out and setting: under `Cc1ccc2cc(CN(CC3CCCO3)C(=O)NC3CCCCC3)c(=O)[nH]c2c1C` (configuration not stated) stands 106% (inactive); under `O=C1CSc2ccc(C(=O)Nc3cccc(S(=O)(=O)Nc4ccc(Br)cc4)c3)cc2N1`, 12% (inactive).
On the same count and under the same terms, with `COc1ccccc1N1CCN(c2ncc(C(=O)N3CCN(c4cccc(Cl)c4)CC3)c3ccccc23)CC1` the figure was 4.47% (inactive); with `CCOC(=O)c1ccc(NC(=O)Cn2ncc(Cl)c(Cl)c2=O)cc1`, -6.56% (inactive).
Same read-out and setting: under `CC(C)(C)NC(=O)CSc1nc2ccc(NC(=O)CSc3nnnn3Cc3ccccc3)cc2s1` stands 16.7% (inactive); under `CN(CC(=O)Nc1cccc(S(=O)(=O)N2CCOCC2)c1)CC(=O)Nc1ccc(Cl)c(C(F)(F)F)c1`, 8.78% (inactive).
In the case of `CC(=O)Nc1cccc(NC(=O)CSc2ncc(-c3ccc(Cl)cc3)n2Cc2ccco2)c1`, the activity change, negative = cytotoxicity was 11.6% (inactive).
Still for that read-out and setting: under `CCCc1nnc(NC(=O)c2nc(S(=O)(=O)Cc3ccc(C)cc3)ncc2Cl)s1` stands 8.63% (inactive); under `Fc1ccc(-n2nnnc2-c2cnc(-c3cccs3)nc2C(F)(F)F)cc1`, 2.19% (inactive).
The same measure, in the same setting: with `COc1cc2ncnc(N[C@H](C)c3ccccc3)c2cc1OC` the figure was 10.2% (inactive); with `COc1cc(CN2CCc3ccccc3C2)ccc1O`, -37.2% (inactive); with `CCOC(=O)C1CCN(C(=O)c2ccc(OCC(=O)Nc3cccc(C(F)(F)F)c3)c(OC)c2)CC1`, -17.5% (inactive).

The subject of another assay is A549 cytotoxicity, plate reader. The description is as above.
Details: not given
Regarding `COc1ccc(NC(=O)c2nc(S(=O)(=O)Cc3cccc(C)c3)ncc2Cl)c(OC)c1`, the AC50 is > 52 µM (inactive).
Same read-out and setting: under `CN(C)c1nc(-c2ccccn2)nnc1-c1ccccc1` stands 25.6 µM.
